Structures are written as SMILES. Values after ≈ are worked out from the molar mass of the structure shown. A value given as a limit tells only on which side of the number the result lay.

The source of these data is ChEMBL document CHEMBL1154504, “Discovery and development of heat shock protein 90 inhibitors” (Bioorg Med Chem, 2009).

The subject of data set [1] is MCF7. Nature of the data set: Antitumor activity in human MCF7 cells xenografted mouse assessed as reduction of tumor burden at 200 mg/kg, ip administered alternative days. Further details: scale not given: the % may be the effect or the level left. Type of data set: functional. To be noted: route intraperitoneal. Background: In xenograft studies the graft and the host belong to different species.

The nature of data set [2]: Solubility in water. It is filed as physicochemical.
Data set [3] deals with T1, Heat shock protein HSP 90-beta (Homo sapiens, UniProt P08238). Kind of data set: Inhibition of Hsp90.
T1 sequence (P08238 whole entry): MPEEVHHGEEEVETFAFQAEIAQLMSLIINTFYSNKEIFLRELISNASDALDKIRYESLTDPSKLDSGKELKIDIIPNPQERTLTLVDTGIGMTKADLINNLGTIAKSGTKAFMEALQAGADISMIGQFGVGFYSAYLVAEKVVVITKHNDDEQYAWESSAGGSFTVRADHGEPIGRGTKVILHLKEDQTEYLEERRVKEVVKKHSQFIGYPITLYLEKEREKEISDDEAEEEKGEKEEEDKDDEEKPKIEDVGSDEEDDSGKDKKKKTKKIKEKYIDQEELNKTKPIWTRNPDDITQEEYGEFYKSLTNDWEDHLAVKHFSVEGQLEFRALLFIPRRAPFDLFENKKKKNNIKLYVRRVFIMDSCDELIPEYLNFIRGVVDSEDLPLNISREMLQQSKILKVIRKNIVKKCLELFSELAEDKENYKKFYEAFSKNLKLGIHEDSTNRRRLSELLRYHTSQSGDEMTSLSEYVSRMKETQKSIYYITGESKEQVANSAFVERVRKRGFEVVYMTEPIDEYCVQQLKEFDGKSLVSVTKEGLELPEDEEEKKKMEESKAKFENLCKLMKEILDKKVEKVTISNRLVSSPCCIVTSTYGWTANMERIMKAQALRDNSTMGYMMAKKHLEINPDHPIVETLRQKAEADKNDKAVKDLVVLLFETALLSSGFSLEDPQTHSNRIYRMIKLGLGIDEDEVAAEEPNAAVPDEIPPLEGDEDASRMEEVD
The test system of data set [4] is MCF7. Kind of data set: Cytotoxicity against human MCF7 cells. Type of data set: functional, cell-based.
For data set [5], the system named is HCT-116. Kind of data set: Antitumor activity in human HCT116 cells xenografted mouse assessed as inhibition of tumor growth at 100 mg/kg, ip. Type of data set: functional. To be noted: HCT-116, ip, route intraperitoneal, read-out: GI.
For data set [6], the target named is T1, Heat shock protein HSP 90-beta. Nature of the data set: Inhibition of Hsp90 in human SKBR3 cells assessed as Her2 degradation. Type of data set: cell-based, SK-BR-3.
Data set [7] shares this target. Nature of the data set: Inhibition of Hsp90 in human MCF7 cells assessed as Her2 degradation. It is filed as cell-based.
Data set [8] has as its system HCT-116. Nature of the data set: cells. The conditions noted are these: Homo sapiens.
Description: Antiproliferative against human HCT116 cells
For data set [9], the target named is T1, Heat shock protein HSP 90-beta. Nature of the data set: Binding affinity to Hsp90 by fluorescence polarization assay. In general terms: Fluorescence polarisation rises when a labelled molecule tumbles more slowly, as on binding a larger partner.
Data set [10] deals with Receptor tyrosine-protein kinase erbB-2 (Homo sapiens, UniProt P04626). Kind of data set: Inhibition of Her2 in human SKBR3 cells. Type of data set: cell-based, SK-BR-3.
Receptor tyrosine-protein kinase erbB-2, sequence (P04626 whole entry): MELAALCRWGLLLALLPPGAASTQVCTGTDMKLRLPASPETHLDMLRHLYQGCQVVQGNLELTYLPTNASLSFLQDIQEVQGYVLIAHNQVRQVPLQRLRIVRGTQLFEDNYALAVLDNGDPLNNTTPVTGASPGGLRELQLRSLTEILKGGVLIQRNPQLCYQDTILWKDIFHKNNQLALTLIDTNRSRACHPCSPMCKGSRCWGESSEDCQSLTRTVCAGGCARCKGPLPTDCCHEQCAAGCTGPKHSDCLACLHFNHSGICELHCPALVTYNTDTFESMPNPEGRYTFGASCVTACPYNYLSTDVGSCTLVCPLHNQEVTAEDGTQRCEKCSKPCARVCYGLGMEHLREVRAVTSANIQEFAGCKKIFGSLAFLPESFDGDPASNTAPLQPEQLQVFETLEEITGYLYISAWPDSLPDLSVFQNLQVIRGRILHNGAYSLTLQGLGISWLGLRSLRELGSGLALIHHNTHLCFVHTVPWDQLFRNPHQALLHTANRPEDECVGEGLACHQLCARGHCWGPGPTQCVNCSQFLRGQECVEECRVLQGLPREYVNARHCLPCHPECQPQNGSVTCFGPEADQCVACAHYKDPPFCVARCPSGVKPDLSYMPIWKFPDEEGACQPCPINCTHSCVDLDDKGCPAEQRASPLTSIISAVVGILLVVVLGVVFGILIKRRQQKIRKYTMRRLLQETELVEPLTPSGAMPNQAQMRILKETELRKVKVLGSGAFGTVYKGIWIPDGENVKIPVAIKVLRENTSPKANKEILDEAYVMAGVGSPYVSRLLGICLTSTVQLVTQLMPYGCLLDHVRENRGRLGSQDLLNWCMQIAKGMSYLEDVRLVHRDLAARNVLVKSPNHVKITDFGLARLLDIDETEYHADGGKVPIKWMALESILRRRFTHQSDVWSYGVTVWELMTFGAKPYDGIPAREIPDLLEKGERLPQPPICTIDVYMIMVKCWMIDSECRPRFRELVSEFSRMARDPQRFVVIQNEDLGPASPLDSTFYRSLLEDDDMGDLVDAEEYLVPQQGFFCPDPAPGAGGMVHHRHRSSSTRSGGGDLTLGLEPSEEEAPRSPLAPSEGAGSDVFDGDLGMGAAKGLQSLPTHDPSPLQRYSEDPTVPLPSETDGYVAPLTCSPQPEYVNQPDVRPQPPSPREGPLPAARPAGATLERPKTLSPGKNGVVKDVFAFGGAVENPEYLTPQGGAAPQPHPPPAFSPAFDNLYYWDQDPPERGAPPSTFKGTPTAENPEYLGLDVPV
Data set [11] has as its target T1, Heat shock protein HSP 90-beta. Kind of data set: Binding affinity to Hsp90 in human SKBR3 cells. Type of data set: cell-based, SK-BR-3.
Data set [12] is described as follows: cells. To be noted: Homo sapiens, NCI60, read-out: GI.
Description: Growth inhibition of human NCI60 cells at 13 nM
The target of data set [13] is T1, Heat shock protein HSP 90-beta. Nature of the data set: Inhibition of Hsp90 assessed as Her2 degradation by cell based assay.
The test system of data set [14] is NCI-N87. Kind of data set: Antitumor activity in human NCI-N87 cells xenografted mouse assessed as inhibition of tumor growth at 125 mg/kg, po administered daily once for 5 days per week measured after 5 weeks. Type of data set: functional. To be noted: read-out: GI.
In data set [15] the test system is NCI-N87. Nature of the data set: Antitumor activity in human NCI-N87 cells xenografted mouse assessed as inhibition of tumor growth at 60 mg/kg, po administered daily once for 5 days per week measured after 5 weeks. It is filed as functional. The conditions noted are these: read-out: GI.
A short description of data set [16]: Inhibition of Rous sarcoma virus v-Src.
In data set [17] the test system is NCI-N87. Kind of data set: Antitumor activity in human NCI-N87 cells xenografted mouse assessed as inhibition of tumor growth at 200 mg/kg, po administered daily once for 5 days per week measured after 30 days. It is filed as functional. The conditions noted are these: read-out: GI.
The subject of data set [18] is HCT-116. Kind of data set: Antitumor activity in human HCT116 cells xenografted mouse assessed as inhibition of tumor growth at 50 mg/kg, ip. The conditions noted are these: HCT-116, ip, route intraperitoneal, read-out: GI. Type of data set: functional.
Data set [19] addresses ATP-dependent molecular chaperone HSP82 (Saccharomyces cerevisiae S288c, UniProt P02829). Kind of data set: Binding affinity to yeast Hsp90 ATPase activity.

ATP-dependent molecular chaperone HSP82, sequence (P02829 whole entry): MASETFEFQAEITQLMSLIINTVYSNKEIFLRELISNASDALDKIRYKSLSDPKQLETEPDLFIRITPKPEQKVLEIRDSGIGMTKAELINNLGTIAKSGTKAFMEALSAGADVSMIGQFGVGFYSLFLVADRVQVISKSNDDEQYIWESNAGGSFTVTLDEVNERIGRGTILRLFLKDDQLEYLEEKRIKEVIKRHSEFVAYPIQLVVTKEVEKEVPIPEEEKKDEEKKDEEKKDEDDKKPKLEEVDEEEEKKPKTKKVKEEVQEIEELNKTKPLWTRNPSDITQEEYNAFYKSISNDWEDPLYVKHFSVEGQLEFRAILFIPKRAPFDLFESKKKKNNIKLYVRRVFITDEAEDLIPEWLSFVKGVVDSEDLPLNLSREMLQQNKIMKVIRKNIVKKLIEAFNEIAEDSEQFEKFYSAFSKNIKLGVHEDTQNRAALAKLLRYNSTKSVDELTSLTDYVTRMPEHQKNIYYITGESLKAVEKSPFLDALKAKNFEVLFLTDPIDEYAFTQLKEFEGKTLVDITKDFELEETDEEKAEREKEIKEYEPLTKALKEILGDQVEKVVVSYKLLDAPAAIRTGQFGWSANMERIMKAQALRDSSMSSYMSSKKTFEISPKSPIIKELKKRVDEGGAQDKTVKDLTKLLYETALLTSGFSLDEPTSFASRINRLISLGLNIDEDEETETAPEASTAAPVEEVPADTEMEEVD

For the molecule `C#CCCCn1c(Cc2cc(OC)c(OC)c(OC)c2Cl)nc2c(N)nc(F)nc21`, in data set [1], the Activity is listed as 72%.

For `COc1ccc(I)c(Sc2nc3c(N)ncnc3n2CCCNC(C)(C)C)c1`, the solubility (as a rule, how much of the substance goes into solution per volume) in [2] was above 10000 µg/mL.

For `C[C@H]1C[C@H]2O[C@@H]2CC/C=C/C(=O)Cc2c(Cl)c(O)cc(O)c2C(=O)O1` [POCHONIN A], the IC50 – broadly, the concentration needed to halve the response being measured – in data set [3] was 90 nM.

`C[C@@H]1C[C@H]2O[C@@H]2/C=C\C=C\C(=O)Cc2c(Cl)c(O)cc(O)c2C(=O)O1` [RADICICOL] came in with a half-maximal inhibitory concentration (IC50) in data set [4] of 23 nM.

As for `CCNC(=O)c1noc(-c2cc(Cl)c(O)cc2O)c1-c1ccc(OC)cc1`, the inhibition in vivo at 100 mg/kg in [5] stood at 30%.

Turning to `C#CCCCn1c(Sc2cc3c(cc2Br)OCO3)nc2c(N)ncnc21`, in data set [3], the 50% effective concentration (EC50) (commonly the concentration at which the effect is half-maximal) is 30 nM. In addition, the IC50 in [6] stood at 300 nM.

In the case of `CCCCn1c(Sc2nc3cccc(Cl)c3s2)nc2c(N)ncnc21`, the half-maximal inhibitory concentration (IC50) in data set [7] stood at 180 nM.

In the case of `C[C@H]1CCCC(=O)CCCCCc2cc(O)cc(O)c2C(=O)O1` [ZEARALANONE], in data set [3], the IC50 amounted to 90 nM.

Regarding `CCc1cc(-c2[nH]nc(C)c2-c2ccc3c(c2)OCCO3)c(O)cc1O`, the concentration for 50% growth inhibition (GI50) (as a rule, the concentration that inhibits growth by half) in data set [8] is 4100 nM.

`Oc1cc(O)c(-c2noc3ccc(NCCN4CCOCC4)cc23)cc1Cl`: the IC50 in data set [9] was determined as 30 nM.

In data set [8], `CS(=O)(=O)c1ccc(CN2CCN(c3cn[nH]c3-c3cc(Cl)c(O)cc3O)CC2)cc1` came in with a GI50 of 3100 nM. The molecule further displayed a concentration for half-maximal inhibition (IC50) in [9] of 740 nM.

Consider `Cc1cc(C#Cc2ccccc2/C=N/N2CCOC2=O)nc(N)n1`, for which, in [9], the Ki (in general, a measure of affinity in units of concentration, obtained from inhibition or displacement) was found to be 4000 nM.

For `C=CCNC1=C2C[C@@H](C)C[C@H](OC)[C@H](O)[C@@H](C)/C=C(\C)[C@H](OC(N)=O)[C@@H](OC)/C=C\C=C(/C)C(=O)NC(=CC1=O)C2=O` [TANESPIMYCIN], in data set [2], the concentration in solution (solubility) came to 50 µg/mL (≈ 0.0854 mM). Also, the half-inhibitory concentration (IC50) in [10] is 31 nM.

For the molecule `CC(C)NCCCn1c(Cc2cc3c(cc2I)OCO3)nc2c(N)nc(F)nc21`, the IC50 in [6] was determined as 90 nM. The same molecule came in with an EC50 in data set [9] of 22 nM.

As to `CC(C)(C)CNCCn1c(Sc2nc3cccc(Cl)c3s2)nc2c(N)ncnc21`, the half-maximal inhibitory concentration (IC50) in [7] amounted to 35 nM.

As for `CO[C@H]1C[C@H](C)Cc2cc(O)cc(c2)NC(=O)/C=C/CC[C@H](OC)[C@@H](OC(N)=O)/C(C)=C/[C@H](C)[C@H]1O`, the affinity in [11], expressed as Kd, was 16 nM.

As to `COC1=C2C[C@@H](C)C[C@H](OC)[C@H](O)[C@@H](C)/C=C(\C)[C@H](OC(N)=O)[C@@H](OC)/C=C\C=C(/C)C(=O)NC(=CC1=O)C2=O` [GELDANAMYCIN], the inhibition of growth at 0.013 µM in data set [12] was determined as 50%.

Regarding `Nc1ncnc2c1nc(Sc1nc3cccc(Cl)c3s1)n2CCNC1CC1`, in data set [7], the IC50 was 110 nM.

In data set [2], `C=CCNc1c(O)cc2c(O)c1C[C@@H](C)C[C@H](OC)[C@H](O)[C@@H](C)/C=C(\C)[C@H](OC(N)=O)[C@@H](OC)/C=C\C=C(/C)C(=O)N2.Cl` [RETASPIMYCIN HYDROCHLORIDE] gave a solubility above 250000 µg/mL.

`C[C@@H]1C/C=C/CC/C=C/C(=O)Cc2c(Cl)c(O)cc(O)c2C(=O)O1` [POCHONIN D] registered a half-maximal inhibitory concentration (IC50) in data set [3] of 80 nM.

As for `COc1c(C)ncc(Cn2cnc3c(Cl)nc(N)nc32)c1C`, the IC50 in [13] worked out at 20 nM. Besides, the inhibition in vivo at 125 mg/kg in data set [14] was found to be 87%. Moreover, the inhibition in vivo at 60 mg/kg in data set [15] turned out to be 83%.

Consider `C[C@@H]1C[C@H]2C[C@@H]2/C=C\C=C\C(=O)Cc2c(Cl)c(O)cc(O)c2C(=O)O1` [CYCLOPROPARADICICOL], for which, in [4], the half-inhibitory concentration (IC50) was 43 nM. The molecule further displayed an ED50 in data set [3] of 160 nM.

For `C[C@@H]1C[C@H]2O[C@@H]2\C=C/C=C/C(=N\OC(=O)N2CCCCC2)Cc2c(Cl)c(O)cc(O)c2C(=O)O1`, in data set [16], half-maximal inhibition (IC50) was put at 25 nM.

In the case of `COc1ccc(I)c(Sc2nc3c(N)ncnc3n2CCNCC(C)(C)C)c1`, the solubility in [2] was above 10000 µg/mL. The inhibition in vivo at 200 mg/kg in data set [17] amounted to 70%.

On to `Oc1cc(O)c(-c2n[nH]cc2N2CCN(Cc3ccccc3)CC2)cc1Cl`, for which the GI50 in data set [8] is 6500 nM.

In [8], `O=S(=O)(Nc1ccc(O)c(-c2c(O)ccc3ccccc23)c1)c1cc(Cl)ccc1Cl` had a 50% growth inhibitory concentration (GI50) of 29000 nM.

Take `CCNC(=O)c1noc(-c2cc(C(C)C)c(O)cc2O)c1-c1ccc(CN(CC)CC)cc1`: the GI50 in data set [8] came out at 6 nM.

In data set [3], `Cc1nc(-c2c(-c3ccc(O)cc3O)noc2C(F)(F)F)cs1` came in with a half-inhibitory concentration (IC50) of 9000 nM.

As for `CCNC(=O)c1noc(-c2cc(C(C)C)c(O)cc2O)c1-c1ccc(CN2CCOCC2)cc1` [LUMINESPIB], in [18], the inhibition in vivo at 50 mg/kg came to 50%.

For the molecule `Cc1[nH]nc(-c2cc(Cl)c(O)cc2O)c1-c1ccc2c(c1)OCCO2`, growth in data set [8] was halved (GI50) at 4000 nM. This molecule registered an IC50 in data set [19] below 1000 nM.
